Experimental data published in publication PMC11274883, “Anticancer Effect of Pt^[sequence], Pt^II5MESS, Pt^II56MESS and Their Platinum(IV)-Dihydroxy Derivatives against Triple-Negative Breast Cancer and Cisplatin-Resistant Colorectal Cancer” (Cancers, 2024).

Assays:
Format in all cases: cell-based
MDA−MB−231 cells [1] = experiment: TMRE mitochondrial membrane potential assay; settings: complexes at IC50, FCCP 20 µM
Method: (§1) Cells were then treated with an IC50 drug concentration for each complex. At 24, 48 or 72 h, DMEM was removed, and cells were washed with PBS. Then, cells were incubated with 1 µM tetramethylrhodamine, ethyl ester (TMRE) stain for 30 min. TMRE was then removed, and cells were washed twice with PBS (0.2% BSA), after which phenol red-free media was added. […] The cells were then stained with TMRE, as described above, and the resulting solution was scanned for fluorescence. Three independent experiments in triplicates were implemented.

HT29 cells [2] = experiment: TMRE mitochondrial membrane potential assay; settings: complexes at IC50, FCCP 20 µM
Method: as §1

MDA−MB−231 cells [3] = experiment: DCFDA cellular ROS detection assay; settings: complexes at IC50, TBHP 20 µM
Method: (§2) DCFDA/H2DCFDA-cellular ROS Assay Kit (Abcam, Cambridge, MA, USA) was used to investigate the production of ROS in treated cells, as previously described. MDA−MB−231 or HT29 cells were seeded at a total concentration of 2500 cells/well in 96-well plates and incubated overnight. DMEM was then removed, and cells washed with 1× kit buffer, and stained with 25 µM 2′,7′-dichlorofluorescein diacetate (DCFH-DA) for 45 min. […] After that, the plates were scanned using the Glo-Max®-Multimode microplate reader (Promega Corporation, Alexandra, VIC, Australia) at an excitation/emission of 485/535 nm to detect fluorescence (relative fluorescence units, or RFU) at various time points. A positive control was generated using 20 µM tert-butyl hydroperoxide (TBHP), and the same procedure was applied with DCFDA. Three independent experiments in triplicates were implemented.

HT29 cells [4] = experiment: DCFDA cellular ROS detection assay; settings: complexes at IC50, TBHP 20 µM
Method: as §2

Q: With `N#CC(C#N)=NNc1ccc(OC(F)(F)F)cc1` [FCCP, carbonyl cyanide 4-(trifluoromethoxy) phenylhydrazone, reference compound] as the compound, how does the “MtMp (mitochondrial membrane potential)” value (MDA−MB−231 cells [1]; MDA−MB−231, 24 h) read?
A: The value was 215.89 RFU.

Q: What about the “MtMp (mitochondrial membrane potential)” value (MDA−MB−231 cells [1]; MDA−MB−231, 48 h) of the same compound?
A: The value was 123.38 RFU.

Q: And the “MtMp (mitochondrial membrane potential)” value (MDA−MB−231 cells [1]; MDA−MB−231, 72 h)?
A: Its value is 99.10 RFU.

Q: What about the “MtMp (mitochondrial membrane potential)” value (HT29 cells [2]; HT29, 24 h) of the same compound?
A: The value was 184.32 RFU.

Q: What about the “MtMp (mitochondrial membrane potential)” value (HT29 cells [2]; HT29, 48 h) of the same compound?
A: The value was 143.31 RFU.

Q: What about the “MtMp (mitochondrial membrane potential)” value (HT29 cells [2]; HT29, 72 h) of the same compound?
A: The value was 83.58 RFU.

Q: Which ROS production (MDA−MB−231 cells [3]; MDA−MB−231, 24 h) does the source give for `CC(C)(C)OO` [TBHP, tert-butyl hydroperoxide, reference compound] here?
A: The ROS production was 509.88 RFU.

Q: What about the ROS production (MDA−MB−231 cells [3]; MDA−MB−231, 48 h) of the same compound?
A: Its ROS production is 400.11 RFU.

Q: And the ROS production (MDA−MB−231 cells [3]; MDA−MB−231, 72 h)?
A: Its ROS production is 388.41 RFU.

Q: And the ROS production (HT29 cells [4]; HT29, 24 h)?
A: Its ROS production is 544.67 RFU.

Q: And the ROS production (HT29 cells [4]; HT29, 48 h)?
A: The ROS production was 362.55 RFU.

Q: And the ROS production (HT29 cells [4]; HT29, 72 h)?
A: Its ROS production is 371.44 RFU.
